According to patent publication US20020091095A1, “Modulation of Fas and FasL expression” (priority 1999, published 2002):

Columns and labels:
Fas [1] = assay: Fas expression at the cell surface by flow cytometry, Jurkat cells; assay type: cell-based; details: Jurkat human leukemia T cells, 100 μg/ml sequence, 48 h, treated vs control cells
Description: (§1) Cancer cells and PBMCs were seeded in 6 well flat-bottom microplates and were maintained at 37° C. in a 5% CO2 atmosphere. Unless stated otherwise, 2×10^5 cells/ml were incubated for 48 h with 0 μg/ml (control) or 100 μg/ml ([…]) (treated) of the sequences.
(§2) Fas and FasL expression were measured by flow cytometry using anti-Fas FITC-conjugated monoclonal antibodies and anti-FasL PE-conjugated monoclonal antibodies in a FACScalibur Flow Cytometer (Becton Dickinson, San Jose, Calif., USA) using the CELLQuest program (Becton Dickinson).
(§3) Results are expressed as percentage (%) increase in the expression of Fas and of FasL measured on treated cells compared to control cells.
(§4) Jurkat human leukemia T cells are an atypical multi-drug resistant human suspension tumor cell model.

Jurkat T leukemia cells = assay: Inhibition of Jurkat leukemia T cell proliferation (MTT reduction); assay type: cell-based, human; details: for % INHIBITION of cell proliferation: Jurkat, 48 h
Description: UMUC-3 bladder cancer cells were incubated for 48 hours with 0.00, 0.02 and 0.20 μg/ml of agonistic anti-Fas monoclonal antibodies (clone CH-11: Coulter-Immunotech, Marseille, France) +0 or 10 μg/ml of SEQ ID NO:5. Cell proliferation was measured using dimethylthiazol-diphenyltetrazolium (MTT) reduction (Mosman et al. J. Immunol. Methods 65:55, 1983). MTT was measured at a wavelength of 570 nm using a multiplate spectrophotometer reader (ELX800, Bio-TEK Instruments Inc., Winooski, Vt.).
Jurkat T leukemia cells were incubated for 48 hours with 0.00, 0.02 and 0.20 μg/ml of agonistic anti-Fas monoclonal antibodies (clone CH-11) +0 and 10 μg/ml of SEQ ID NO:5. Cell proliferation was measured as in Example 13.

Fas [2] = assay: Fas expression at the cell surface by flow cytometry, OVCAR-3 cells; assay type: cell-based, human; details: OVCAR-3 ovarian cancer cells, 100 μg/ml sequence, 48 h, treated vs control cells
Description: as §1, §2, §3
(§5) OVCAR-3 ovarian cancer cells are a p53 mutated, p21/waf-1/Cip deleted, metastatic human solid tumor model.

EAE = EAE in (SJL/J×PL/J) F1 mice induced with myelin basic protein; assay type: in vivo
Description: Female (SJL/J×PL/J) F1 mice are injected subcutaneously in both femoral regions with an emulsion containing 0.5 mg of myelin basic protein (MBP) mixed with complete Freund's adjuvant. After 24 h, 400 ng of Bordetella pertussis toxin is administered intraperitoneally. On the day of onset (day 0), group 1 mice receive saline, group 2 mice receive 1, 10 or 100 mg/kg of SEQ. ID NO:5, group 3 mice receive 1, 10 or 100 mg/kg of SEQ. ID NO:16, group 4 mice receive 1, 10 or 100 mg/kg of SEQ. ID NO:17, group 5 mice receive 1, 10 or 100 mg/kg of SEQ. ID NO: 18, group 6 mice receive anti-Fas antibodies, group 7 mice receive 1, 10 or 100 mg/kg of SEQ. ID NO:5 +anti-Fas antibodies, group 8 mice receive 1, 10 or 100 mg/kg of SEQ. ID NO:16 +anti-Fas antibodies, group 9 receive 1, 10 or 100 mg/kg of SEQ. ID NO:17 +anti-Fas antibodies, group 10 mice receive 1, 10 or 100 mg/kg of SEQ. ID NO: 18 +anti-Fas antibodies for 3 days by intracistemal administration (20 μg/day). In these different groups, anti-Fas antibodies are administered at any dose in the range of about 0.003 to about 0.3 mg/kg. […] The efficacy of the SEQ. ID NO:5, the SEQ. ID NO: 16 and the SEQ. ID NO: 17 is dose-dependent.

FasL [3] = assay: FasL expression at the cell surface by flow cytometry, Jurkat cells; assay type: cell-based; details: Jurkat human leukemia T cells, 100 μg/ml sequence, 48 h, treated vs control cells
Description: as §1, §2, §3, §4

FasL [4] = assay: FasL expression at the cell surface by flow cytometry, MCF-7 cells; assay type: cell-based, human; details: MCF-7 breast cancer cells, 100 μg/ml sequence, 48 h, treated vs control cells
Description: as §1, §2, §3
MCF-7 human breast cancer cells are a caspase-3 negative, estrogen-dependent human solid tumor model.

FasL [5] = assay: FasL expression at the cell surface by flow cytometry, PBMCs; assay type: cell-based, human; details: 100 μg/ml sequence, 48 h, treated vs control cells
Description: Peripheral blood mononuclear cells (hereinafter, “PBMCs”) were isolated from human blood by Ficoll-Hypaque (Amersham Pharmacia Biotech, Baie d'Urfée, Québec, Canada) density gradient centrifugation.
as §1, §2, §3

FasL [6] = assay: FasL expression at the cell surface by flow cytometry, OVCAR-3 cells; assay type: cell-based, human; details: OVCAR-3 ovarian cancer cells, 100 μg/ml sequence, 48 h, treated vs control cells
Description: as §1, §2, §3, §5

FasL [7] = assay: FasL expression at the cell surface by flow cytometry, T-24 cells; assay type: cell-based, human; details: T-24 bladder cancer cells, 100 μg/ml sequence, 48 h, treated vs control cells
Description: as §1, §2, §3
T-24 bladder cancer cells are a p53 mutated human cell line T-24 cells (1.0×10^5 cells/ml) were incubated with the 6 base sequences shown in Table 4.

[8] = test system: EL-4 murine T lymphoma cells; assay: EL-4 murine T lymphoma implanted in C57/BL6 lpr/lpr mice; assay type: in vivo
Description: EL-4 murine T lymphoma cells are implanted into C57/BL6 lpr/lpr (Fas negative mice). The mice are divided into 30 groups of 10 mice. On day 0, group 1 mice receive saline, group 2 mice receive 1, 10 or 100 mg/kg of SEQ. ID NO:5, group 3 mice receive 1, 10 or 100 mg/kg of SEQ. ID NO:16, group 4 receive 1, 10 or 100 mg/kg of SEQ. ID NO:17, group 5 mice receive 1, 10 or 100 mg/kg of SEQ. ID NO: 18, group 6 mice receive anti-Fas antibodies, group 7 mice receive 1, 10 or 100 mg/kg of SEQ. ID NO:5 +anti-Fas antibodies, group 8 mice receive 1, 10 or 100 mg/kg of SEQ. ID NO: 16 +anti-Fas antibodies, group 9 receive 1, 10 or 100 mg/kg of SEQ. ID NO:17 +anti-Fas antibodies, group 10 mice receive 1, 10 or 100 mg/kg of SEQ. ID NO:18 +anti-Fas antibodies. In these different groups, anti-Fas antibodies are administered at any dose in the range of about 0.003 to about 0.3 mg/kg. […] The efficacy of the SEQ. ID NO:5, the SEQ. ID NO: 16 and the SEQ. ID NO: 17 is dose-dependent.

In the case of GGGTGG [SEQ ID NO:5], the “% INCREASE Fas” value (Fas [1]) is reported as 150%, the “combined effect with agonistic anti-Fas antibodies on cell proliferation” value (Jurkat T leukemia cells; Jurkat T cells, 0.02 and 0.2 μg/ml anti-Fas antibodies, 10 μg/ml sequence) is reported as “additive” and the “% INHIBITION of cell proliferation” value (Jurkat T leukemia cells; 10 μg/ml sequence + anti-Fas antibodies 0.02 μg/ml) is reported as 28%. The “% INHIBITION of cell proliferation” value (Jurkat T leukemia cells; 10 μg/ml sequence + anti-Fas antibodies 0.2 μg/ml) was 48%, the “% INHIBITION of cell proliferation” value (Jurkat T leukemia cells; 10 μg/ml sequence, anti-Fas antibodies 0.0 μg/ml) was 16% and the “% INCREASE Fas” value (Fas [2]) was 43%. The “efficacy, dose dependence” value (EAE; 1, 10 or 100 mg/kg) was “dose-dependent”, the “progression of EAE” value (EAE; sequence 1, 10 or 100 mg/kg + anti-Fas antibodies, for 3 days) was “least progression of EAE” and the “% INCREASE FasL” value (FasL [3]) was 145%. For the same sequence, the “% INCREASE FasL” value (FasL [4]) was 81%, the “% INCREASE FasL” value (FasL [5]) was −20% and the “% INCREASE FasL” value (FasL [6]) was 9%. The “% INCREASE FasL” value (FasL [7]) was 13%, the “efficacy, dose dependence” value ([8]; 1, 10 or 100 mg/kg) was “dose-dependent” and the tumor mass ([8]; sequence 1, 10 or 100 mg/kg + anti-Fas antibodies, vs all other groups) was “least tumor mass”. For the same sequence, the tumor mass ([8]; single agent (sequence 1, 10 or 100 mg/kg, or anti-Fas antibodies) vs group 1 (saline)) was “less tumor mass”.
